In patent US20230017045A1, “PYRIDINE AND PYRIMIDINE CARBOXYLATE HERBICIDES AND METHODS OF USE THEREOF” (Dow AgroSciences LLC, priority 2017, published 2023):

System: test plant species
Experiment: Post-emergent herbicidal activity test (greenhouse, foliar spray, visual growth reduction)
Assay type: in vivo
Details: post-emergence, 336 h, ALOMY: blackgrass (Alopecurus myosuroides), 140 g ai/ha, 14 days after application, read-out: Visual Growth Reduction (%) 14 Days After Application, ALOMY
Experimental: Post-emergent Test: Seeds or nutlets of the desired test plant species were planted in Sun Gro Metro-Mix® 360 planting mixture, which typically has a pH of 6.0 to 6.8 and an organic matter content of about 30 percent, in plastic pots with a surface area of 64 square centimeters. In some aspects, to ensure good germination and healthy plants, a fungicide treatment and/or other chemical or physical treatment was applied. The plants were grown for 7-21 d in a greenhouse with an approximate 15 h photoperiod which was maintained at 23-29° C. during the day and 22-28° C. during the night. Nutrients and water were added on a regular basis and supplemental lighting was provided with overhead metal halide 1000-Watt lamps as necessary. Plants were used for testing when they reached the first or second true leaf stage. A weighed amount, determined by the highest rate to be tested, of each test compound was placed in a 25 mL glass vial and was dissolved in 4 mL of a 97:3 v/v mixture of acetone and DMSO to obtain concentrated stock solutions. […] The concentrated stock solutions obtained were diluted with 20 mL of an aqueous mixture containing acetone, water, isopropyl alcohol, DMSO, […] crop oil concentrate, and X-77 surfactant in a 48.5:39:10:1.5:1.0:0.02 v/v ratio to obtain spray solutions containing the application rate. Compound requirements are based upon a 12 mL application volume at a rate of 187 liters per hectare (L/ha). Formulated compounds were applied to the plant material with an overhead Mandel track sprayer equipped with […] nozzles calibrated to deliver 187 L/ha over an application area of 0.64 square meters at a spray height of 18 inches (43 cm) above the average plant canopy height. Control plants were sprayed in the same manner with the solvent blank. The treated plants and control plants were placed in a greenhouse as described above and watered by subirrigation to prevent wash-off of the test compounds. After 14 d, the condition of the test plants as compared with that of the nontreated and control plants was determined visually and scored on a scale of 0 to 100 percent where 0 corresponds to no injury and 100 corresponds to complete control. In the reporting of the results, Table A: Percent Growth Reduction Conversion Table was used.

Question: COC(=O)c1nc(-c2ccc(C(F)(F)F)cc2C(N)=O)ccc1Cl [F146, Methyl 6-(2-carbamoyl-4-(trifluoromethyl)phenyl)-3-chloropicolinate] was tested. Which pest or weed control at 140 g/ha did it give?
Answer: Its pest or weed control at 140 g/ha is 0 to 29%.

Question: With COC(=O)c1nc(-c2ccc(F)cc2Cl)ccc1Cl [F37, Methyl 3-chloro-6-(2-chloro-4-fluorophenyl) picolinate] as the compound, how does the pest or weed control at 140 g/ha read?
Answer: The pest or weed control at 140 g/ha was 0 to 29%.

Same assay, conditions: post-emergence, 336 h, AMARE: redroot pigweed (Amaranthus retroflexus), 140 g ai/ha, 14 days after application, read-out: Visual Growth Reduction (%) 14 Days After Application, AMARE

Question: With COC(=O)c1nc(-c2ccc(C(F)(F)F)cc2C(N)=O)ccc1Cl [F146, Methyl 6-(2-carbamoyl-4-(trifluoromethyl)phenyl)-3-chloropicolinate] as the compound, how does the pest or weed control at 140 g/ha read?
Answer: The pest or weed control at 140 g/ha was 0 to 29%.

Question: How did the pest or weed control at 140 g/ha turn out when COC(=O)c1nc(-c2ccc(F)cc2Cl)ccc1Cl [F37, Methyl 3-chloro-6-(2-chloro-4-fluorophenyl) picolinate] was run?
Answer: The pest or weed control at 140 g/ha was 85 to 94%.

Same assay, conditions: post-emergence, 336 h, AVEFA: wild oat (Avena fatua), 140 g ai/ha, 14 days after application, read-out: Visual Growth Reduction (%) 14 Days After Application, AVEFA

Question: Which pest or weed control at 140 g/ha does the source give for COC(=O)c1nc(-c2ccc(C(F)(F)F)cc2C(N)=O)ccc1Cl [F146, Methyl 6-(2-carbamoyl-4-(trifluoromethyl)phenyl)-3-chloropicolinate] here?
Answer: Its pest or weed control at 140 g/ha is 0 to 29%.

Question: How did the pest or weed control at 140 g/ha turn out when COC(=O)c1nc(-c2ccc(F)cc2Cl)ccc1Cl [F37, Methyl 3-chloro-6-(2-chloro-4-fluorophenyl) picolinate] was run?
Answer: Its pest or weed control at 140 g/ha is 0 to 29%.

Same assay, conditions: post-emergence, 336 h, CHEAL: lambsquarters (Chenopodium album), 140 g ai/ha, 14 days after application, read-out: Visual Growth Reduction (%) 14 Days After Application, CHEAL

Question: How did the pest or weed control at 140 g/ha turn out when COC(=O)c1nc(-c2ccc(C(F)(F)F)cc2C(N)=O)ccc1Cl [F146, Methyl 6-(2-carbamoyl-4-(trifluoromethyl)phenyl)-3-chloropicolinate] was run?
Answer: Its pest or weed control at 140 g/ha is 0 to 29%.

Question: COC(=O)c1nc(-c2ccc(F)cc2Cl)ccc1Cl [F37, Methyl 3-chloro-6-(2-chloro-4-fluorophenyl) picolinate] was tested. Which pest or weed control at 140 g/ha did it give?
Answer: Its pest or weed control at 140 g/ha is 60 to 74%.

Same assay, conditions: post-emergence, 336 h, CIRAR: canada thistle (Cirsium arvense), 140 g ai/ha, 14 days after application, read-out: Visual Growth Reduction (%) 14 Days After Application, CIRAR

Question: Which pest or weed control at 140 g/ha does the source give for COC(=O)c1nc(-c2ccc(C(F)(F)F)cc2C(N)=O)ccc1Cl [F146, Methyl 6-(2-carbamoyl-4-(trifluoromethyl)phenyl)-3-chloropicolinate] here?
Answer: The pest or weed control at 140 g/ha was 0 to 29%.

Question: How did the pest or weed control at 140 g/ha turn out when COC(=O)c1nc(-c2ccc(F)cc2Cl)ccc1Cl [F37, Methyl 3-chloro-6-(2-chloro-4-fluorophenyl) picolinate] was run?
Answer: Its pest or weed control at 140 g/ha is 0 to 29%.

Same assay, conditions: post-emergence, 336 h, CYPES: yellow nutsedge (Cyperus esculentus), 140 g ai/ha, 14 days after application, read-out: Visual Growth Reduction (%) 14 Days After Application, CYPES

Question: For COC(=O)c1nc(-c2ccc(C(F)(F)F)cc2C(N)=O)ccc1Cl [F146, Methyl 6-(2-carbamoyl-4-(trifluoromethyl)phenyl)-3-chloropicolinate], which pest or weed control at 140 g/ha is on record?
Answer: Its pest or weed control at 140 g/ha is 0 to 29%.

Question: For COC(=O)c1nc(-c2ccc(F)cc2Cl)ccc1Cl [F37, Methyl 3-chloro-6-(2-chloro-4-fluorophenyl) picolinate], which pest or weed control at 140 g/ha is on record?
Answer: The pest or weed control at 140 g/ha was 0 to 29%.

Same assay, conditions: post-emergence, 336 h, DIGSA: crabgrass (Digitaria sanguinalis), 140 g ai/ha, 14 days after application, read-out: Visual Growth Reduction (%) 14 Days After Application, DIGSA

Question: How did the pest or weed control at 140 g/ha turn out when COC(=O)c1nc(-c2ccc(C(F)(F)F)cc2C(N)=O)ccc1Cl [F146, Methyl 6-(2-carbamoyl-4-(trifluoromethyl)phenyl)-3-chloropicolinate] was run?
Answer: The pest or weed control at 140 g/ha was 0 to 29%.

Question: For COC(=O)c1nc(-c2ccc(F)cc2Cl)ccc1Cl [F37, Methyl 3-chloro-6-(2-chloro-4-fluorophenyl) picolinate], which pest or weed control at 140 g/ha is on record?
Answer: Its pest or weed control at 140 g/ha is 0 to 29%.

Same assay, conditions: post-emergence, 336 h, ECHCG: barnyardgrass (Echinochloa crus-galli), 140 g ai/ha, 14 days after application, read-out: Visual Growth Reduction (%) 14 Days After Application, ECHCG

Question: For COC(=O)c1nc(-c2ccc(C(F)(F)F)cc2C(N)=O)ccc1Cl [F146, Methyl 6-(2-carbamoyl-4-(trifluoromethyl)phenyl)-3-chloropicolinate], which pest or weed control at 140 g/ha is on record?
Answer: The pest or weed control at 140 g/ha was 0 to 29%.

Question: For COC(=O)c1nc(-c2ccc(F)cc2Cl)ccc1Cl [F37, Methyl 3-chloro-6-(2-chloro-4-fluorophenyl) picolinate], which pest or weed control at 140 g/ha is on record?
Answer: The pest or weed control at 140 g/ha was 0 to 29%.

Same assay, conditions: post-emergence, 336 h, IPOHE: ivy-leaf morning glory (Ipomoea hederacea), 140 g ai/ha, 14 days after application, read-out: Visual Growth Reduction (%) 14 Days After Application, IPOHE

Question: How did the pest or weed control at 140 g/ha turn out when COC(=O)c1nc(-c2ccc(C(F)(F)F)cc2C(N)=O)ccc1Cl [F146, Methyl 6-(2-carbamoyl-4-(trifluoromethyl)phenyl)-3-chloropicolinate] was run?
Answer: The pest or weed control at 140 g/ha was 30 to 44%.

Question: For COC(=O)c1nc(-c2ccc(F)cc2Cl)ccc1Cl [F37, Methyl 3-chloro-6-(2-chloro-4-fluorophenyl) picolinate], which pest or weed control at 140 g/ha is on record?
Answer: The pest or weed control at 140 g/ha was 75 to 84%.

Same assay, conditions: post-emergence, 336 h, KCHSC: kochia (Bassia scoparia), 140 g ai/ha, 14 days after application, read-out: Visual Growth Reduction (%) 14 Days After Application, KCHSC

Question: For COC(=O)c1nc(-c2ccc(C(F)(F)F)cc2C(N)=O)ccc1Cl [F146, Methyl 6-(2-carbamoyl-4-(trifluoromethyl)phenyl)-3-chloropicolinate], which pest or weed control at 140 g/ha is on record?
Answer: Its pest or weed control at 140 g/ha is 0 to 29%.

Question: How did the pest or weed control at 140 g/ha turn out when COC(=O)c1nc(-c2ccc(F)cc2Cl)ccc1Cl [F37, Methyl 3-chloro-6-(2-chloro-4-fluorophenyl) picolinate] was run?
Answer: The pest or weed control at 140 g/ha was 0 to 29%.

Same assay, conditions: post-emergence, 336 h, ORYSA: rice (Oryza sativa), 140 g ai/ha, 14 days after application, read-out: Visual Growth Reduction (%) 14 Days After Application, ORYSA

Question: COC(=O)c1nc(-c2ccc(C(F)(F)F)cc2C(N)=O)ccc1Cl [F146, Methyl 6-(2-carbamoyl-4-(trifluoromethyl)phenyl)-3-chloropicolinate] was tested. Which pest or weed control at 140 g/ha did it give?
Answer: The pest or weed control at 140 g/ha was 0 to 29%.

Question: How did the pest or weed control at 140 g/ha turn out when COC(=O)c1nc(-c2ccc(F)cc2Cl)ccc1Cl [F37, Methyl 3-chloro-6-(2-chloro-4-fluorophenyl) picolinate] was run?
Answer: The pest or weed control at 140 g/ha was 0 to 29%.

Same assay, conditions: post-emergence, 336 h, SETFA: giant foxtail (Setaria faberi), 140 g ai/ha, 14 days after application, read-out: Visual Growth Reduction (%) 14 Days After Application, SETFA

Question: COC(=O)c1nc(-c2ccc(C(F)(F)F)cc2C(N)=O)ccc1Cl [F146, Methyl 6-(2-carbamoyl-4-(trifluoromethyl)phenyl)-3-chloropicolinate] was tested. Which pest or weed control at 140 g/ha did it give?
Answer: Its pest or weed control at 140 g/ha is 0 to 29%.

Question: Which pest or weed control at 140 g/ha does the source give for COC(=O)c1nc(-c2ccc(F)cc2Cl)ccc1Cl [F37, Methyl 3-chloro-6-(2-chloro-4-fluorophenyl) picolinate] here?
Answer: The pest or weed control at 140 g/ha was 0 to 29%.

Same assay, conditions: post-emergence, 336 h, SORVU: grain sorghum (Sorghum vulgare), 140 g ai/ha, 14 days after application, read-out: Visual Growth Reduction (%) 14 Days After Application, SORVU

Question: With COC(=O)c1nc(-c2ccc(C(F)(F)F)cc2C(N)=O)ccc1Cl [F146, Methyl 6-(2-carbamoyl-4-(trifluoromethyl)phenyl)-3-chloropicolinate] as the compound, how does the pest or weed control at 140 g/ha read?
Answer: Its pest or weed control at 140 g/ha is 0 to 29%.

Question: With COC(=O)c1nc(-c2ccc(F)cc2Cl)ccc1Cl [F37, Methyl 3-chloro-6-(2-chloro-4-fluorophenyl) picolinate] as the compound, how does the pest or weed control at 140 g/ha read?
Answer: Its pest or weed control at 140 g/ha is 75 to 84%.

Same assay, conditions: post-emergence, 336 h, STEME: common chickweed (Stellaria media), 140 g ai/ha, 14 days after application, read-out: Visual Growth Reduction (%) 14 Days After Application, STEME

Question: For COC(=O)c1nc(-c2ccc(C(F)(F)F)cc2C(N)=O)ccc1Cl [F146, Methyl 6-(2-carbamoyl-4-(trifluoromethyl)phenyl)-3-chloropicolinate], which pest or weed control at 140 g/ha is on record?
Answer: Its pest or weed control at 140 g/ha is 0 to 29%.

Question: Which pest or weed control at 140 g/ha does the source give for COC(=O)c1nc(-c2ccc(F)cc2Cl)ccc1Cl [F37, Methyl 3-chloro-6-(2-chloro-4-fluorophenyl) picolinate] here?
Answer: The pest or weed control at 140 g/ha was 0 to 29%.

Same assay, conditions: post-emergence, 336 h, TRZAS: wheat, spring (Triticum aestivum), 140 g ai/ha, 14 days after application, read-out: Visual Growth Reduction (%) 14 Days After Application, TRZAS

Question: COC(=O)c1nc(-c2ccc(C(F)(F)F)cc2C(N)=O)ccc1Cl [F146, Methyl 6-(2-carbamoyl-4-(trifluoromethyl)phenyl)-3-chloropicolinate] was tested. Which pest or weed control at 140 g/ha did it give?
Answer: The pest or weed control at 140 g/ha was 0 to 29%.

Question: COC(=O)c1nc(-c2ccc(F)cc2Cl)ccc1Cl [F37, Methyl 3-chloro-6-(2-chloro-4-fluorophenyl) picolinate] was tested. Which pest or weed control at 140 g/ha did it give?
Answer: The pest or weed control at 140 g/ha was 0 to 29%.
